Values of other authors, collected in patent US7354746B1, “Method for producing optically active IHOG and monatin” (Ajinomoto Co., Inc., priority 2006, dated 2008).
Read-outs that look alike come from different tables or passages of the source.

Conditions: for Sweetness (vs. Sucrose): sweetness intensity relative to sucrose

SMILES | Sweetness rank among the 4 types of monatin isomers (comparison of the 4 monatin isomers) | Sweetness (vs. Sucrose) | Sweetness (vs. Sucrose) (listed as (2R, 4R)-monatin)
N[C@H](CC(O)(Cc1c[nH]c2ccccc12)C(=O)O)C(=O)O (stereo partly drawn) [2R, 4R, (2R, 4R)-monatin] | highest sweetness | 2700 times | 2,700 times
N[C@H](C[C@@](O)(Cc1c[nH]c2ccccc12)C(=O)O)C(=O)O [2R, 4S] |  | 1300 times | 
N[C@@H](C[C@](O)(Cc1c[nH]c2ccccc12)C(=O)O)C(=O)O [2S, 4R, (2S, 4R)-monatin] |  | 300 times | 
NC(CC(O)(Cc1c[nH]c2ccccc12)C(=O)O)C(=O)O [2S, 4S, (2S, 4S)-monatin] |  | 50 times | 
